Experimental data from ChEMBL document CHEMBL1201862, “PubChem BioAssay data set” (2004).
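96-well plates; 48 h exposure; 5 concentrations. Endpoints by linear interpolation between flanking doses. Not reached: highest tested concentration assigned. Abbreviation: GI50, concentration required for 50% inhibition of growth.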 Activity calls are given as the source filed them. No stated cut-off is given here; in the data, active = GI50 up to about 1.1 µM and inactive = higher.

Columns and labels:
Test in all cases: inhibition of tumour cell growth, NCI panel, 48 h
IGROV-1 = system: IGROV-1
SNB-19 = system: SNB-19
HCT-116 = system: HCT-116
HCC 2998 = system: HCC 2998
EKVX = system: EKVX
HT-29 = system: HT-29
U-251 = system: U-251
OVCAR-4 = system: OVCAR-4
CCRF-CEM = system: CCRF-CEM
UO-31 = system: UO-31
SF-268 = system: SF-268
SF-295 = system: SF-295
RPMI-8226 = system: RPMI-8226
OVCAR-3 = system: OVCAR-3
NCI-H460 = system: NCI-H460
SNB-78 = system: SNB-78
CAKI-1 = system: CAKI-1
HOP-62 = system: HOP-62
MDA-MB-435 = system: MDA-MB-435
Hs-578T = system: Hs-578T

Compound: O=C1c2ccccc2C(=O)c2nc3ccc(Cl)cc3cc21
- GI50 (IGROV-1): > 100 µM (inactive)
- GI50 (SNB-19): > 100 µM (inactive)
- GI50 (HCT-116): > 100 µM (inactive)
- GI50 (HCC 2998): > 100 µM (inactive)
- GI50 (EKVX): > 100 µM (inactive)
- GI50 (HT-29): > 100 µM (inactive)
- GI50 (U-251): > 100 µM (inactive)
- GI50 (OVCAR-4): > 100 µM (inactive)
- GI50 (CCRF-CEM): > 100 µM (inactive)
- GI50 (UO-31): > 100 µM (inactive)
- GI50 (SF-268): > 100 µM (inactive)
- GI50 (SF-295): 52.5 µM (inactive)
- GI50 (RPMI-8226): > 100 µM (inactive)
- GI50 (OVCAR-3): > 100 µM (inactive)
- GI50 (NCI-H460): > 100 µM (inactive)
- GI50 (SNB-78): > 100 µM (inactive)
- GI50 (CAKI-1): > 100 µM (inactive)
- GI50 (HOP-62): > 100 µM (inactive)

Compound: Cc1ccc(/N=N/c2ccc(N(CCC#N)CCC#N)cc2C)c(Br)c1
- GI50 (IGROV-1): 37.4 µM (inactive)
- GI50 (SNB-19): 32.4 µM (inactive)
- GI50 (HCC 2998): 5.28 µM (inactive)
- GI50 (EKVX): 41 µM (inactive)
- GI50 (HT-29): 3.53 µM (inactive)
- GI50 (U-251): 19.1 µM (inactive)
- GI50 (OVCAR-4): 20.4 µM (inactive)
- GI50 (CCRF-CEM): 5.85 µM (inactive)
- GI50 (UO-31): 16.9 µM (inactive)
- GI50 (SF-268): 21.1 µM (inactive)
- GI50 (SF-295): 18.7 µM (inactive)
- GI50 (RPMI-8226): 4.33 µM (inactive)
- GI50 (OVCAR-3): 32.6 µM (inactive)
- GI50 (SNB-78): 24.7 µM (inactive)
- GI50 (CAKI-1): 2.38 µM (inactive)
- GI50 (HOP-62): 16.6 µM (inactive)

Compound: CC1COS(=O)O1 (stereo not given)
- GI50 (IGROV-1): > 100 µM (inactive)
- GI50 (SNB-19): > 100 µM (inactive)
- GI50 (HCT-116): > 100 µM (inactive)
- GI50 (HCC 2998): > 100 µM (inactive)
- GI50 (EKVX): > 100 µM (inactive)
- GI50 (HT-29): > 100 µM (inactive)
- GI50 (OVCAR-4): > 100 µM (inactive)
- GI50 (CCRF-CEM): > 100 µM (inactive)
- GI50 (UO-31): > 100 µM (inactive)
- GI50 (SF-268): > 100 µM (inactive)
- GI50 (SF-295): > 100 µM (inactive)
- GI50 (RPMI-8226): > 100 µM (inactive)
- GI50 (OVCAR-3): > 100 µM (inactive)
- GI50 (NCI-H460): > 100 µM (inactive)
- GI50 (SNB-78): > 100 µM (inactive)
- GI50 (CAKI-1): > 100 µM (inactive)
- GI50 (HOP-62): > 100 µM (inactive)

Compound: CC(C)CC(NC(=O)OC(C)(C)C)C(=O)Nc1ccc(Nc2nc(F)nc(-c3c4ccccc4cn3C)n2)cc1 (stereo not given)
- GI50 (IGROV-1): > 100 µM (inactive)
- GI50 (SNB-19): > 86.1 µM (inactive)
- GI50 (HCT-116): 72.1 µM (inactive)
- GI50 (HCC 2998): 15.8 µM (inactive)
- GI50 (EKVX): 52.7 µM (inactive)
- GI50 (HT-29): 23.1 µM (inactive)
- GI50 (U-251): 43.9 µM (inactive)
- GI50 (OVCAR-4): > 41.8 µM (inactive)
- GI50 (CCRF-CEM): 33.3 µM (inactive)
- GI50 (UO-31): 44.9 µM (inactive)
- GI50 (SF-268): > 100 µM (inactive)
- GI50 (MDA-MB-435): > 100 µM (inactive)
- GI50 (SF-295): > 81.7 µM (inactive)
- GI50 (RPMI-8226): 3.07 µM (inactive)
- GI50 (OVCAR-3): 22.5 µM (inactive)
- GI50 (NCI-H460): > 75 µM (inactive)
- GI50 (SNB-78): 14.7 µM (inactive)
- GI50 (Hs-578T): 40.3 µM (inactive)
- GI50 (CAKI-1): > 100 µM (inactive)
- GI50 (HOP-62): 12.7 µM (inactive)

Compound: COC(=O)C(C(=O)C(=O)Nc1nc2ccc([N+](=O)[O-])cc2s1)c1nc2ccc(Cl)cc2nc1O (stereo not given)
- GI50 (IGROV-1): > 100 µM (inactive)
- GI50 (SNB-19): > 100 µM (inactive)
- GI50 (HCT-116): > 100 µM (inactive)
- GI50 (HCC 2998): > 100 µM (inactive)
- GI50 (EKVX): > 100 µM (inactive)
- GI50 (HT-29): > 100 µM (inactive)
- GI50 (U-251): 94.8 µM (inactive)
- GI50 (OVCAR-4): > 100 µM (inactive)
- GI50 (CCRF-CEM): > 100 µM (inactive)
- GI50 (UO-31): > 100 µM (inactive)
- GI50 (SF-268): > 100 µM (inactive)
- GI50 (SF-295): > 100 µM (inactive)
- GI50 (RPMI-8226): > 100 µM (inactive)
- GI50 (OVCAR-3): > 100 µM (inactive)
- GI50 (NCI-H460): > 100 µM (inactive)
- GI50 (SNB-78): > 100 µM (inactive)
- GI50 (CAKI-1): 71.3 µM (inactive)
- GI50 (HOP-62): > 100 µM (inactive)

Compound: COC(=O)C1=NC(=S)NC(c2ccccc2)C1c1nc2ccccc2o1 (stereo not given)
- GI50 (IGROV-1): > 50 µM (inactive)
- GI50 (SNB-19): > 50 µM (inactive)
- GI50 (HCT-116): > 50 µM (inactive)
- GI50 (HCC 2998): > 50 µM (inactive)
- GI50 (EKVX): > 50 µM (inactive)
- GI50 (HT-29): > 50 µM (inactive)
- GI50 (U-251): > 50 µM (inactive)
- GI50 (OVCAR-4): > 50 µM (inactive)
- GI50 (CCRF-CEM): > 50 µM (inactive)
- GI50 (UO-31): > 50 µM (inactive)
- GI50 (SF-268): > 50 µM (inactive)
- GI50 (SF-295): > 50 µM (inactive)
- GI50 (RPMI-8226): > 50 µM (inactive)
- GI50 (OVCAR-3): > 50 µM (inactive)
- GI50 (NCI-H460): > 50 µM (inactive)
- GI50 (SNB-78): > 50 µM (inactive)
- GI50 (CAKI-1): > 50 µM (inactive)
- GI50 (HOP-62): > 50 µM (inactive)

Compound: O=C(/C=C/c1ccc(Cl)c(Cl)c1)c1cccc2ccccc12
- GI50 (IGROV-1): 11.7 µM (inactive)
- GI50 (SNB-19): 6.85 µM (inactive)
- GI50 (HCT-116): 3.23 µM (inactive)
- GI50 (HCC 2998): 10.4 µM (inactive)
- GI50 (EKVX): 18.4 µM (inactive)
- GI50 (HT-29): 3.59 µM (inactive)
- GI50 (U-251): 2.74 µM (inactive)
- GI50 (OVCAR-4): 7.64 µM (inactive)
- GI50 (CCRF-CEM): 2.53 µM (inactive)
- GI50 (UO-31): 19.6 µM (inactive)
- GI50 (SF-268): 4.52 µM (inactive)
- GI50 (SF-295): 11.4 µM (inactive)
- GI50 (RPMI-8226): 2.29 µM (inactive)
- GI50 (OVCAR-3): 6.32 µM (inactive)
- GI50 (NCI-H460): 5.81 µM (inactive)
- GI50 (SNB-78): 11.4 µM (inactive)
- GI50 (CAKI-1): 7.36 µM (inactive)
- GI50 (HOP-62): 17 µM (inactive)

Compound: O=C1C=CC(=O)c2c1cc1ccccc1c2O
- GI50 (IGROV-1): 5.28 µM (inactive)
- GI50 (SNB-19): 19.3 µM (inactive)
- GI50 (HCT-116): 1.85 µM (inactive)
- GI50 (HCC 2998): 17.7 µM (inactive)
- GI50 (EKVX): 11.5 µM (inactive)
- GI50 (HT-29): 7.53 µM (inactive)
- GI50 (U-251): 14 µM (inactive)
- GI50 (OVCAR-4): 2.33 µM (inactive)
- GI50 (CCRF-CEM): 0.391 µM (active)
- GI50 (UO-31): 3.15 µM (inactive)
- GI50 (SF-268): 8.24 µM (inactive)
- GI50 (MDA-MB-435): 6.37 µM (inactive)
- GI50 (SF-295): 17.1 µM (inactive)
- GI50 (RPMI-8226): 2.43 µM (inactive)
- GI50 (OVCAR-3): 2.12 µM (inactive)
- GI50 (NCI-H460): 19.1 µM (inactive)
- GI50 (SNB-78): 3.78 µM (inactive)
- GI50 (Hs-578T): 8.22 µM (inactive)
- GI50 (CAKI-1): 4.21 µM (inactive)
- GI50 (HOP-62): 16.7 µM (inactive)

Compound: COc1nc(C(Cl)(Cl)Cl)c(Cl)c(OC)c1Cl [PENCLOMEDINE]
- GI50 (IGROV-1): 14.2 µM (inactive)
- GI50 (SNB-19): 27.3 µM (inactive)
- GI50 (HCT-116): 41.9 µM (inactive)
- GI50 (HCC 2998): 46.1 µM (inactive)
- GI50 (EKVX): 40.8 µM (inactive)
- GI50 (HT-29): 14.6 µM (inactive)
- GI50 (U-251): 36.1 µM (inactive)
- GI50 (OVCAR-4): 25.7 µM (inactive)
- GI50 (CCRF-CEM): 32.5 µM (inactive)
- GI50 (UO-31): 40.8 µM (inactive)
- GI50 (SF-268): 36.1 µM (inactive)
- GI50 (MDA-MB-435): 42.5 µM (inactive)
- GI50 (SF-295): 40.2 µM (inactive)
- GI50 (RPMI-8226): 24.1 µM (inactive)
- GI50 (OVCAR-3): 38.8 µM (inactive)
- GI50 (NCI-H460): 21.9 µM (inactive)
- GI50 (SNB-78): 37.1 µM (inactive)
- GI50 (Hs-578T): 33.3 µM (inactive)
- GI50 (CAKI-1): 40.3 µM (inactive)
- GI50 (HOP-62): 12.1 µM (inactive)
